# Experimental data published in ChEMBL document CHEMBL1201862, “PubChem BioAssay data set” (2004).
#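 Interpolation was linear, between the two tested concentrations surrounding the appropriate level; five concentrations were tested over 48 hours in 96-well plates. GI50 marks 50% less growth.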 Calls of active or inactive are those of the source. No stated cut-off is given here; in the data, active = GI50 up to about 1.1 µM and inactive = higher.
# Columns and labels:
# Experiment in all cases: growth of human tumour cells (NCI), 48 h
# 786-0 = tested on: 786-0
# A498 = tested on: A498
# CAKI-1 = tested on: CAKI-1
# CCRF-CEM = tested on: CCRF-CEM
# EKVX = tested on: EKVX
# HCT-15 = tested on: HCT-15
# HT-29 = tested on: HT-29
# Hs-578T = tested on: Hs-578T
# IGROV-1 = tested on: IGROV-1
# M14 = tested on: M14
# NCI-H226 = tested on: NCI-H226
# NCI-H522 = tested on: NCI-H522
# NCI/ADR-RES = tested on: NCI/ADR-RES
# SF-539 = tested on: SF-539
# SK-OV-3 = tested on: SK-OV-3
# SN12C = tested on: SN12C
# SNB-75 = tested on: SNB-75
# SR = tested on: SR
# SW-620 = tested on: SW-620
# T47D = tested on: T47D
Structure (SMILES),GI50 (786-0),GI50 (A498),GI50 (CAKI-1),GI50 (CCRF-CEM),GI50 (EKVX),GI50 (HCT-15) [µM],GI50 (HT-29),GI50 (Hs-578T),GI50 (IGROV-1),GI50 (M14),GI50 (NCI-H226),GI50 (NCI-H522),GI50 (NCI/ADR-RES),GI50 (SF-539),GI50 (SK-OV-3),GI50 (SN12C),GI50 (SNB-75),GI50 (SR),GI50 (SW-620),GI50 (T47D)
N#CC1CCCC2SC(F)(F)C(F)(F)C12 (stereo not given),> 100 µM (inactive),> 100 µM (inactive),> 100 µM (inactive),26.4 µM (inactive),> 100 µM (inactive),> 100,> 88.5 µM (inactive),> 100 µM (inactive),> 100 µM (inactive),> 100 µM (inactive),> 100 µM (inactive),> 87.5 µM (inactive),> 100 µM (inactive),> 100 µM (inactive),> 100 µM (inactive),> 100 µM (inactive),> 88.3 µM (inactive),23.8 µM (inactive),> 100 µM (inactive),> 100 µM (inactive)
Cc1cccc(/C=N/NC(=S)NC2CCCCC2)n1,20 µM (inactive),28.1 µM (inactive),43.3 µM (inactive),1.14 µM (inactive),22.4 µM (inactive),5.26,3.27 µM (inactive),31.1 µM (inactive),21.3 µM (inactive),23 µM (inactive),15.7 µM (inactive),7.96 µM (inactive),11.9 µM (inactive),27.7 µM (inactive),23.1 µM (inactive),27.4 µM (inactive),45.3 µM (inactive),4.76 µM (inactive),9.25 µM (inactive),2.58 µM (inactive)
COC(=O)C1CCC(=O)N1C(c1ccc(OC)cc1)c1ccc2c(c1)OCO2 (stereo not given),62.8 µM (inactive),58.6 µM (inactive),62.8 µM (inactive),43.1 µM (inactive),> 100 µM (inactive),32.3,34.9 µM (inactive),36.2 µM (inactive),52 µM (inactive),28.5 µM (inactive),67.3 µM (inactive),22.4 µM (inactive),33.3 µM (inactive),32.9 µM (inactive),59.4 µM (inactive),57.9 µM (inactive),20.2 µM (inactive),31 µM (inactive),33.5 µM (inactive),> 100 µM (inactive)
CC(=O)OC(C)(C)[C@H]1O[C@]23O[C@]1(C)C[C@@H](C)[C@@H]2[C@@]1(C)CC[C@@]24C[C@@]25CC[C@H](O[C@@H]2OC[C@@H](O)[C@H](O)[C@H]2O)C(C)(C)[C@@H]5CC[C@H]4[C@]1(C)[C@H]3O,6.38 µM (inactive),6.44 µM (inactive),5.47 µM (inactive),5.94 µM (inactive),4.06 µM (inactive),3.41,8.38 µM (inactive),17.4 µM (inactive),7.08 µM (inactive),8.59 µM (inactive),8.59 µM (inactive),7.28 µM (inactive),7.73 µM (inactive),4.35 µM (inactive),12.3 µM (inactive),4.41 µM (inactive),17.1 µM (inactive),3.18 µM (inactive),4.34 µM (inactive),17.6 µM (inactive)
C/C(=C/CC[C@](C)(OC1OC(CO)C(O)C(O)C1O)[C@H]1CC[C@]2(C)[C@@H]1CC[C@@H]1[C@@]3(C)CC[C@H](O)C(C)(C)[C@@H]3C[C@H](O)[C@]12C)CO (stereo not given in full),12.6 µM (inactive),60 µM (inactive),31.7 µM (inactive),27.9 µM (inactive),60.8 µM (inactive),18.1,11.6 µM (inactive),16.2 µM (inactive),38 µM (inactive),37.5 µM (inactive),26.8 µM (inactive),17.9 µM (inactive),47.4 µM (inactive),10.4 µM (inactive),21.9 µM (inactive),22 µM (inactive),8.43 µM (inactive),22.2 µM (inactive),27.4 µM (inactive),16.9 µM (inactive)
CCc1cc(Cc2cc(CC)c(NC(=O)C(=O)CC(=O)c3sc(-c4cccnc4)nc3C)c(CC)c2)cc(CC)c1NC(=O)C(=O)CC(=O)c1sc(-c2cccnc2)nc1C,> 100 µM (inactive),> 100 µM (inactive),> 10 µM (inactive),> 100 µM (inactive),> 100 µM (inactive),> 100,> 100 µM (inactive),> 100 µM (inactive),> 100 µM (inactive),> 100 µM (inactive),> 100 µM (inactive),> 100 µM (inactive),> 100 µM (inactive),> 100 µM (inactive),> 100 µM (inactive),> 100 µM (inactive),> 100 µM (inactive),> 10 µM (inactive),> 100 µM (inactive),> 100 µM (inactive)
Cc1cc(Cl)ccc1Nc1sc(C(=O)c2cc3cc(Cl)ccc3o2)c(N)c1C#N,3.83 µM (inactive),5.6 µM (inactive),25.1 µM (inactive),> 27.1 µM (inactive),17.9 µM (inactive),33,8.67 µM (inactive),> 100 µM (inactive),16.3 µM (inactive),9.57 µM (inactive),> 87.7 µM (inactive),3.42 µM (inactive),1.82 µM (inactive),6.53 µM (inactive),14.7 µM (inactive),11.9 µM (inactive),3.48 µM (inactive),> 100 µM (inactive),15.2 µM (inactive),16.6 µM (inactive)
COC(=O)c1ccccc1C1CN=NC12Cc1ccc(C)cc1C2=O (stereo not given),> 100 µM (inactive),> 100 µM (inactive),84.5 µM (inactive),> 100 µM (inactive),65.8 µM (inactive),56.1,42.6 µM (inactive),41.5 µM (inactive),63.8 µM (inactive),65.2 µM (inactive),73.1 µM (inactive),30.5 µM (inactive),36.6 µM (inactive),> 100 µM (inactive),> 100 µM (inactive),58.6 µM (inactive),90.6 µM (inactive),63.8 µM (inactive),45.2 µM (inactive),29.4 µM (inactive)
C=CCn1c(=O)ccn(/C(=C/C(=O)OCC)C(=O)OCC)c1=O,3.48 µM (inactive),17.9 µM (inactive),1.91 µM (inactive),2.08 µM (inactive),17.2 µM (inactive),1.83,10.4 µM (inactive),22.5 µM (inactive),15.3 µM (inactive),13.5 µM (inactive),13.9 µM (inactive),2.44 µM (inactive),21.3 µM (inactive),24 µM (inactive),25.7 µM (inactive),8.73 µM (inactive),16.1 µM (inactive),6.4 µM (inactive),2.18 µM (inactive),5.13 µM (inactive)
N#CC(c1ccc(O)cc1)N1CCN(C(C#N)c2ccc(O)cc2)CC1 (stereo not given),> 64.1 µM (inactive),> 100 µM (inactive),> 100 µM (inactive),> 100 µM (inactive),35.7 µM (inactive),97.3,> 100 µM (inactive),27.7 µM (inactive),51.1 µM (inactive),> 100 µM (inactive),34.3 µM (inactive),> 100 µM (inactive),40.8 µM (inactive),34.7 µM (inactive),28.6 µM (inactive),> 87.1 µM (inactive),19 µM (inactive),> 100 µM (inactive),> 100 µM (inactive),39.5 µM (inactive)
